The test system of test [1] is Molt-4 cells. Briefly: AlamarBlue (resazurin) viability assay. It is filed as cell-based. As for the experimental part: Dose-dependent AlamarBlue® (resazurin) viability assays were performed on Molt-4 cells treated with different concentrations of three phytocannabinoids (CBD, CBDV and CF1) at different ratios, as shown in Table 2.
In order to determine the effect of cannabinoids on the reduction of the survival rate of cancer cells, dose-dependent AlamarBlue® (resazurin) viability assays were then performed on Molt-4 cells treated with single cannabinoids or a combination of two cannabinoids at the same concentration as that of the three phytocannabinoids present in the whole extract, as shown in Table 3. Particularly, CF1 alone, or in combination with one additional cannabinoid was examined to determine its capability to induce apoptosis of cancer cells.

Test [2] deals with DBTRG-05MG cells. Briefly: Hoechst / Propidium Iodide cell death imaging. Particulars: 24 hours; for % of cell death, effect of adding the cannabinoid to CBD: DBTRG-05MG, purified cannabinoids at content of extract 2, 4 and 8 μg/ml, compared with CBD alone. The format is cell-based. The method, then:
The effects of cannabinoids on the survival of tolerant glioblastoma (GBM) cancer cells harboring a NOTCH 4 mutation were examined.
DBTRG-05MG cells were cultured in 96 well plate (1×10^5 cells/well) until confluency and treated with DMSO as control, pure cannabidiol (CBD), and extracts CAN12 and CAN26 with increasing concentrations from 1 to 4 μg/ml (FIG. 2A).
In another experiment, cells were cultured in 96 well plate (1×10^5 cells/well) until confluency and treated for 24 hours with three molecules (CBD, CBDV and CF1) as compared to the whole extract. The treatments were performed using three extract concentrations: 2, 4 and 8 μg/ml (FIG. 2B). After 24 hours, cells were stained with Hoechst and Propidium Iodide (PI) and imaged by IXM micro system (Molecular Devices) in 10× magnification. Live and dead cells were analyzed by MetaXpress® software (Molecular Devices) and presented as percentages of cell death from total cells. The purified phytocannabinoids were diluted to contain the same content as in the extract, then were provided according to the extract concentrations.

Consider `CCCCCc1cc(O)c(C2C=C(C)CCC2C(C)(C)O)c(O)c1` [CF1, 1,3-benzenediol,2-[(1R,6R)-6-(1-hydroxy-1-methylethyl)-3-methyl-2cyclohexen-1-yl]-5-pentyl], for which the “inducing cancer cells death” value in test [1] (Molt-4, CF1 alone as a single cannabinoid (1a, 0.62 ng/μl)) is recorded as “showed efficacy”. In addition, the “potency among the three cannabinoids (CBD, CBDV, CF1)” value in test [1] (Molt-4, Table 3 compositions) was “most potent”. In test [2], the “% of cell death, effect of adding the cannabinoid to CBD” value is on record as “improved the activity of CBD alone”.

For `C=C(C)[C@@H]1CCC(C)=C[C@H]1c1c(O)cc(CCC)cc1O` [CBDV, cannabidivarin], the “% of cell death, effect of adding the cannabinoid to CBD” value in test [2] is listed as “improved the activity of CBD alone”.

Consider `C=C(C)[C@@H]1CCC(C)=C[C@H]1c1c(O)cc(CCCCC)cc1O` [CBD, cannabidiol], for which, in test [2] (GBM DBTRG-05MG cells harboring a NOTCH 4 mutation, vs DMSO), the “% of cell death” value was “increased”.

The values above are taken from patent publication US12714719B2, “Cannabinoids, pharmaceutical compositions comprising same and uses thereof” (TECHNION RESEARCH AND DEVELOPMENT FOUNDATION LIMITED, priority 2020, dated 2026).
